Patent US20080287491A1, “Tetrahydroquinoline Derivative for Treating Nicotine Craving” (priority 2003, published 2008)
“Also recorded” adds a separate entry of the source. Structures can show the parent of a compound that is named as a salt.

Tests used:
[1] = tested on: nicotine craving in smokers abstinent for 3 days from cigarettes; assay: QSU-Brief nicotine craving questionnaire, single-dose enforced abstinence study; type: in vivo, human; conditions: single dose 120 mg iv
Protocol: The ability of the compound of formula (I) or pharmaceutically acceptable salts thereof to reduce nicotine craving in smokers was measured by means of self-administered questionnaires on Smoking Craving/Urge-Brief (QSU-Brief), as described by Tiffany S T, & Christen A G Cox L S, Nicotine and Tobacco Research, 3: 7-16, 2001. The QSU-Brief is a specific craving scale that consists of 10 items scored on a scale from 1 to 7. The higher average score corresponds to the higher intensity of nicotine craving. The QSU-Brief has 2 factors: factor 1 refers to the anticipation of pleasure from smoke and factor 2 refers to anticipation of relief from negative affects of abstinence. The study investigated nicotine craving in smokers abstinent for 3 days from cigarettes (enforced abstinence model) receiving either a single dose 120 mg iv of the compound of formula (I) as meglumine salt (Compound) or a single dose of placebo. Self-administered questionnaires (QSU-Brief), were administered at pre-dose and 3, 6 and 12 hours post dose to evaluate craving.

[2] = tested on: nicotine craving in smokers abstinent for 72 hours from cigarettes; assay: QSU-Brief nicotine craving questionnaire, repeated-dose three-period crossover enforced abstinence study; type: in vivo, human; conditions: 31 smoker volunteers; 120 mg/day intravenously for 7 days; 72 hours of abstinence from Day 5; FIG. 1
Protocol: The ability of the compound of formula (I) or pharmaceutically acceptable salts thereof to reduce nicotine craving in smokers was measured by means of self-administered questionnaires on Smoking Craving/Urge-Brief (QSU-Brief), as described by Tiffany S T, & Christen A G Cox L S, Nicotine and Tobacco Research, 3: 7-16, 2001. The QSU-Brief is a specific craving scale that consists of 10 items scored on a scale from 1 to 7. The higher average score corresponds to the higher intensity of nicotine craving. The QSU-Brief has 2 factors: factor 1 refers to the anticipation of pleasure from smoke and factor 2 refers to anticipation of relief from negative affects of abstinence. A further study investigated nicotine craving in smokers abstinent for 72 hours from cigarettes (enforced abstinence model) receiving either repeated administrations of the compound of formula (I) as meglumine salt (Compound) or placebo. […] Each subject was exposed to 3 different experimental conditions: 1) Compound (120 mg/day) was administered intravenously for 7 days starting on Day 1 and quitted smoking abruptly on Day 5 for 72 hours (i.e. non-smoking period;) 2) Placebo was administered intravenously for 7 days starting on Day 1 and quitted smoking abruptly on Day 5 for 72 hours (i.e. non-smoking period;) 3) allowed to smoke for 7 consecutive days (i.e. free smoking period). […]

SMILES: O=C(O)[C@H]1C/C(=C2/CCN(c3ccccc3)C2=O)c2ccc(Cl)cc2N1 [Compound, (2R,4E)-7-chloro-4-(2-oxo-1-phenyl-3-pyrrolidinylidene)-1,2,3,4-tetrahydro-2-quinolinecarboxylic acid, (2R,3R,4R,5S)-6-methylamino-hexane-1,2,3,4,5-pentanol (meglumine) salt (form 2)]
- QSU-Brief: Craving Factor 2 (average during abstinence) ([1]; QSU-Brief items scored 1 to 7, pre-dose and 3, 6 and 12 hours post dose, placebo 4.0): 3.6
- Average craving factor 2 compared with placebo ([1]; versus abstinent smokers receiving placebo): significant average lower craving factor 2
- Nicotine craving level (QSU-Brief) compared with placebo [2]: showed reduction in nicotine craving; also recorded: reduced the nicotine craving level
